From ChEMBL document CHEMBL1944569, “QSAR study and synthesis of new phenyltropanes as ligands of the dopamine transporter (DAT)” (Bioorg Med Chem, 2012)

Legend:
[1] = molecular target: T1, Sodium-dependent dopamine transporter (Homo sapiens, UniProt Q01959); assay: Displacement of [3H]WIN35428 from human cloned DAT receptor expressed in human HEK293 cells; assay type: cell-based
[2] = molecular target: T2, Sodium-dependent dopamine transporter (Rattus norvegicus, UniProt P23977); assay: Displacement of [3H]WIN35428 from rat cloned striatal DAT receptor
[3] = Lipophilicity, log D of the compound in octanol-water at pH 7.4 by reverse-phase HPLC analysis
[4] = molecular target: Sodium-dependent noradrenaline transporter (Homo sapiens, UniProt P23975); assay: Displacement of [3H]nisoxetine from human cloned NET receptor expressed in HEK293 cells; assay type: cell-based
[5] = molecular target: Sodium-dependent serotonin transporter (Homo sapiens, UniProt P31645); assay: Displacement of [3H]Citalopram from human cloned SERT receptor expressed in HEK293 cells; assay type: cell-based
[6] = molecular target: T2, Sodium-dependent dopamine transporter; assay: Displacement of [3H]GBR-12935 from rat cloned striatal DAT receptor
[7] = molecular target: T1, Sodium-dependent dopamine transporter; assay: Ratio of PE2I Ki to compound Ki for human cloned DAT receptor
Homo sapiens [8] = species: Homo sapiens; assay: Selectivity ratio of compound Ki for human cloned SERT receptor to Ki for human DAT receptor
[9] = molecular target: T1, Sodium-dependent dopamine transporter; assay: Ratio of LBT999 Ki to compound Ki for human cloned DAT receptor
Homo sapiens [10] = species: Homo sapiens; assay: Selectivity ratio of compound Ki for human cloned NET receptor to Ki for human DAT receptor

Sodium-dependent noradrenaline transporter, sequence (P23975 whole entry): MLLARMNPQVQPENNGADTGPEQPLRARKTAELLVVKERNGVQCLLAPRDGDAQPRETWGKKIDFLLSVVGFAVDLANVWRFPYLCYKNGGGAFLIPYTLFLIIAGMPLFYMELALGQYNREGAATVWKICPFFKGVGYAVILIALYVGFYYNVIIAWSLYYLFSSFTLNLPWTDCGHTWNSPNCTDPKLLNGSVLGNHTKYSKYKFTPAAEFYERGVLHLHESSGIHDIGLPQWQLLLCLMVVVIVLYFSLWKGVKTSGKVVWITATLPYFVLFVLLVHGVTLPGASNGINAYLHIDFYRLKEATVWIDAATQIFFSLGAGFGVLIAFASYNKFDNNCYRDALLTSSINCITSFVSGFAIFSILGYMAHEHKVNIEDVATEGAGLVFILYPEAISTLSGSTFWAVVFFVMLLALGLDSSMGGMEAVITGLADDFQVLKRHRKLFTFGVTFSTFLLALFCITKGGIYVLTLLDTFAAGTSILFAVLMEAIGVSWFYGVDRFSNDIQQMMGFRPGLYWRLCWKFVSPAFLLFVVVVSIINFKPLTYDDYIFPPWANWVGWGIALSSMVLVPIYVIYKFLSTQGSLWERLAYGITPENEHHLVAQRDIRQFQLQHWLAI
T1 sequence (Q01959 whole entry): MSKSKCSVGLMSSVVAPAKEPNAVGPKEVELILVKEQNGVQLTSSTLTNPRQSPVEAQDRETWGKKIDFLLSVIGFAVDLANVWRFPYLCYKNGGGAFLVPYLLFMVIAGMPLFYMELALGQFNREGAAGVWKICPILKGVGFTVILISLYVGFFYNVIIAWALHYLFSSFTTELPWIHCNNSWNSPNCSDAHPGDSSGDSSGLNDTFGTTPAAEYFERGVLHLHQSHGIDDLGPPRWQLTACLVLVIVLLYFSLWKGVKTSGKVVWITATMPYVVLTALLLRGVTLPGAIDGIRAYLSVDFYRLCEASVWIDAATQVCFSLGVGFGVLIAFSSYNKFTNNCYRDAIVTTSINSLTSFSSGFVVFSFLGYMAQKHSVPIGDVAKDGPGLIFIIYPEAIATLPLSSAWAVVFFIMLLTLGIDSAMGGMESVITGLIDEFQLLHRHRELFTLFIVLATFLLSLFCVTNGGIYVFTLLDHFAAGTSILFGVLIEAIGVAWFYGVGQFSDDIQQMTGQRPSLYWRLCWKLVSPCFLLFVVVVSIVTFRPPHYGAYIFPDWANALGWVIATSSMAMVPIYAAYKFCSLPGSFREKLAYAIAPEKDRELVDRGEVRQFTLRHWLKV
T2 sequence (P23977 whole entry): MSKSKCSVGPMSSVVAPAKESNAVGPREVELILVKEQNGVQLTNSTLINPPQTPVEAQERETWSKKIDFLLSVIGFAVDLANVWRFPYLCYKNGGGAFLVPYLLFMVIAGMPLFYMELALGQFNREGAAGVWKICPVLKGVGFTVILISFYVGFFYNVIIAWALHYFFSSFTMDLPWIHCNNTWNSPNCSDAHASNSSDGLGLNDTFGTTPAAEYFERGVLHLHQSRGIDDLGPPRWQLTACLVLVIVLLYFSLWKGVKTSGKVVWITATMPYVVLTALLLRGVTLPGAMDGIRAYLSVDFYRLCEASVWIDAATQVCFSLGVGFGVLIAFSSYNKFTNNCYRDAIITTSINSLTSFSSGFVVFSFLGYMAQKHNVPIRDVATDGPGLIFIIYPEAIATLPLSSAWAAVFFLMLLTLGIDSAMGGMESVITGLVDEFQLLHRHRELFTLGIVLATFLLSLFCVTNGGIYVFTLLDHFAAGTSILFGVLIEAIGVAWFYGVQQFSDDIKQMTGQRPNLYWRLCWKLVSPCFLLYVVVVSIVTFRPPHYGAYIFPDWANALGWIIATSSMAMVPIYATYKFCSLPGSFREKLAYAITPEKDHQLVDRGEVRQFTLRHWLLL
Sodium-dependent serotonin transporter, sequence (P31645 whole entry): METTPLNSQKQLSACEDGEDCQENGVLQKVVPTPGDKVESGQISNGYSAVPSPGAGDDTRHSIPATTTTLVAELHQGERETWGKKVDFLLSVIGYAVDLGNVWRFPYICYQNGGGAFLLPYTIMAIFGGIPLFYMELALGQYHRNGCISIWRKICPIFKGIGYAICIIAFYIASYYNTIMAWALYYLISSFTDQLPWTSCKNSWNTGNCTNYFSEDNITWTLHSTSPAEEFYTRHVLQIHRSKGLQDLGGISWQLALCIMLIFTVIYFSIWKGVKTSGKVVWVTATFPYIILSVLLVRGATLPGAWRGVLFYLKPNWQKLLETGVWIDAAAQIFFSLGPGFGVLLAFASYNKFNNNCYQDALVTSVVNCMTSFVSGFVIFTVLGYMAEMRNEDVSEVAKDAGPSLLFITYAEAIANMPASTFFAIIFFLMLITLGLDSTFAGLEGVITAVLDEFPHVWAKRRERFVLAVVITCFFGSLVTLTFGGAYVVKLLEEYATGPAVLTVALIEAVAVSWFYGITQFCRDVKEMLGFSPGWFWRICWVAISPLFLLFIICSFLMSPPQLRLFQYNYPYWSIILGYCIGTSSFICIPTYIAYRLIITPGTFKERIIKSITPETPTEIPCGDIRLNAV

SMILES | Ki ([1]; read-out: pKi (converted)) | further results
CCCc1ccc([C@H]2C[C@@H]3CC[C@@H](N3)[C@H]2C(=O)OC)cc1I | 501 nM | 
Cc1ccc([C@H]2C[C@@H]3CC[C@H]([C@H]2C(=O)OC/C=C/I)N3C)cc1 |  | IC50 [2]: 191 nM
Nc1ccccc1 [ANILINE] |  | logD [3]: 0.9
CCOc1ccc([C@H]2C[C@@H]3CC[C@H]([C@H]2C(=O)OC)N3C)cc1 |  | pIC50 [2]: 7.04
CCCCc1ccc([C@H]2C[C@@H]3CC[C@H]([C@H]2C(=O)OC)N3C)cc1I | 372 nM | 
CC(C)OC(=O)[C@@H]1[C@@H](OC(c2ccc(F)cc2)c2ccc(F)cc2)C[C@H]2CC[C@@H]1N2C | 30.9 nM | 
O=C(OCCF)[C@H]1[C@@H](c2cccc(/C=C\I)c2)C[C@@H]2CC[C@H]1N2 | 89.1 nM | 
CCCCc1ccc([C@H]2C[C@@H]3CC[C@@H](N3)[C@H]2C(=O)OC)cc1I | 372 nM | 
COC(=O)[C@H]1[C@@H](c2ccc(I)cc2)C[C@@H]2CC[C@H]1N2C/C=C/CF | 0.501 nM | 
COC(=O)[C@H]1[C@@H](c2ccc(C(C)C)cc2)C[C@@H]2CC[C@H]1N2C | 501 nM | 
COC(=O)[C@H]1[C@@H](c2ccc(C(C)C)c(I)c2)C[C@@H]2CC[C@H]1N2 | 501 nM | 
COC(=O)[C@H]1[C@@H](c2ccc(C)cc2)C[C@@H]2CC[C@H]1N2C/C=C(\I)C(F)(F)F |  | Ki ([1]; read-out: Ki): 116 nM; Ki [4]: 426 nM; Ki [5]: 251 nM; logD [3]: 5.3
CCOC(=O)[C@H]1[C@@H](c2ccc(C)cc2)C[C@@H]2CC[C@H]1N2Cc1ccc(F)cc1 |  | IC50 [2]: 29.5 nM
COC(=O)[C@H]1[C@@H](c2ccc(C)c(I)c2)C[C@@H]2CC[C@H]1N2C | 46.8 nM | 
CCCc1ccc([C@H]2C[C@@H]3CC[C@H]([C@H]2C(=O)OC)N3C)cc1I | 501 nM | 
CCOC(=O)[C@H]1[C@@H](c2ccc(Cl)cc2)C[C@@H]2CC[C@H]1N2Cc1ccc(F)cc1 |  | IC50 [2]: 7.08 nM
CN1[C@H]2CC[C@@H]1[C@@H](C(=O)OCc1ccccc1)[C@@H](c1ccc(Cl)c(Cl)c1)C2 | 34.7 nM | 
CCCCc1ccc([C@H]2C[C@@H]3CC[C@H]([C@H]2C(=O)OC)N3C)cc1 | 501 nM | 
COc1ccc([C@H]2C[C@@H]3CC[C@H]([C@H]2C(=O)OC(C)C)N3C)cc1 |  | pIC50 [2]: 7.85
O=C(OCCF)[C@H]1[C@@H](c2ccc(/C=C\I)cc2)C[C@@H]2CC[C@H]1N2 | 13.2 nM | 
COC(=O)[C@H]1[C@@H](c2ccc(F)cc2)C[C@@H]2CC[C@H]1N2CCF | 70.8 nM | 
COC(=O)[C@H]1[C@@H](c2ccc(F)cc2)C[C@@H]2CC[C@H]1N2C/C=C/CF | 9.55 nM | 
COC(=O)[C@H]1[C@@H](c2ccc(I)cc2)C[C@@H]2CC[C@H]1N2CCCF [IOFLUPANE] | 28.2 nM | 

SMILES | Ki ([1]; read-out: pKi (converted)) | further results
CN1[C@H]2CC[C@@H]1[C@@H](C(=O)OCCc1ccccc1)[C@@H](c1ccc(Cl)c(Cl)c1)C2 | 11 nM | 
CC(C)OC(=O)[C@H]1[C@@H](c2ccc(Cl)c(Cl)c2)C[C@@H]2CC[C@H]1N2C | 18.2 nM | 
COC(=O)[C@H]1[C@@H](c2ccc(C)cc2)C[C@@H]2CC[C@H]1N2C | 32.4 nM | 
O=[N+]([O-])c1cccc(O)c1 [3-NITRO-PHENOL] |  | logD [3]: 2
COC(=O)[C@H]1[C@@H](c2ccc(F)cc2)C[C@@H]2CC[C@H]1N2CCCF | 47.9 nM | 
c1ccc(-c2ccccc2)cc1 [BIPHENYL] |  | logD [3]: 4.01
Cc1ccc([C@H]2C[C@@H]3CC[C@H]([C@H]2C(=O)OCCF)N3C/C=C/I)cc1 | 12 nM | 
COC(=O)[C@H]1[C@@H](c2ccc(I)cc2)C[C@@H]2CC[C@H]1N2C | 35.5 nM | 
COC(=O)C1C2CCC(CC1c1ccc(Cl)c(Cl)c1)O2 (stereo not given) |  | IC50 [2]: 9.77 nM
COC(=O)[C@H]1[C@@H](c2ccc(I)cc2)C[C@H]2N[C@@H]1C[C@H]2C |  | IC50 [6]: 2450 nM
COC(=O)[C@H]1[C@@H](c2ccc(C)c(I)c2)C[C@@H]2CC[C@H]1N2 | 112 nM | 
COC(=O)[C@H]1[C@@H](c2ccc(C)cc2)C[C@@H]2CC[C@H]1N2C/C(I)=C/C(F)(F)F |  | Ki ([1]; read-out: Ki): 0.87 nM; Ratio Ki [7]: 20; Ratio Ki (Homo sapiens [8]): 10000; Ratio Ki [9]: 10; Ki [4]: 188 nM; Ratio Ki (Homo sapiens [10]): 216; Ki [5]: > 1000 nM; logD [3]: 5.5
CN1[C@H]2CC[C@@H]1[C@@H](C(=O)OCCc1ccc(N=[N+]=[N-])c(I)c1)[C@@H](c1ccc(Cl)cc1)C2 | 14.1 nM | 
CN1[C@H]2CC[C@@H]1[C@@H](c1nc(-c3ccccc3)no1)[C@@H](c1ccc(Cl)cc1)C2 |  | IC50 [2]: 794 nM
COC(=O)[C@H]1[C@@H](c2ccccc2)C[C@@H]2CC[C@H]1N2C/C=C/I | 115 nM | 
Cc1ccc([C@H]2C[C@@H]3CC[C@H]([C@H]2C(=O)OC/C=C\I)N3C)cc1 |  | IC50 [2]: 39.8 nM
ClCc1ccccc1 [(CHLOROMETHYL)BENZENE] |  | logD [3]: 2.3
COC(=O)[C@H]1[C@@H](c2ccc(C)cc2)C[C@@H]2CC[C@H]1N2C/C=C/I | 17 nM | Ki ([1]; read-out: Ki): 17 nM; Ki [4]: > 500 nM; logD [3]: 4.9
COC(=O)[C@H]1[C@@H](c2ccc(I)cc2)C[C@@H]2CC[C@H]1N2C/C=C/I | 30.2 nM | 
C/C=C/CN1[C@H]2CC[C@@H]1[C@@H](C(=O)OC)[C@@H](c1ccc(I)cc1)C2 | 15.1 nM | 
C[C@@H](CF)OC(=O)[C@H]1[C@@H](c2ccc(Cl)cc2)C[C@@H]2CC[C@H]1N2C | 0.676 nM | 
O=C(OCCF)[C@H]1[C@@H](c2cccc(/C=C/I)c2)C[C@@H]2CC[C@H]1N2 | 275 nM | 
COC(=O)C1C2CCC(C2)CC1c1ccc(Cl)c(Cl)c1 (stereo not given) |  | IC50 [2]: 3.31 nM

SMILES | Ki ([1]; read-out: pKi (converted)) | further results
CCCc1ccc([C@H]2C[C@@H]3CC[C@H]([C@H]2C(=O)OC)N3C/C=C/I)cc1 | 372 nM | 
COC(=O)[C@H]1[C@@H](c2ccccc2)C[C@@H]2CC[C@H]1N2C [TROPARIL] | 33.1 nM | 
CCc1ccc([C@H]2C[C@@H]3CC[C@H]([C@H]2C(=O)OC)N3C)cc1I | 339 nM | 
COC(=O)[C@H]1[C@@H](c2ccc(C(C)C)c(I)c2)C[C@@H]2CC[C@H]1N2C | 501 nM | 
COC(=O)[C@H]1[C@@H](c2ccc(Cl)c(Cl)c2)C[C@@H]2CC[C@H]1N2C/C=C/I | 28.8 nM | 
CCc1ccc([C@H]2C[C@@H]3CC[C@H]([C@H]2C(=O)OC)N3C)cc1 | 501 nM | 
COC(=O)[C@H]1[C@@H](c2ccc(C)cc2)C[C@@H]2CC[C@H]1N2C/C=C/CF |  | logD [3]: 4.1
Oc1ccc2ccccc2c1 [BETANAPHTHOL] |  | logD [3]: 2.7
COC(=O)[C@H]1[C@@H](c2ccc(Cl)c(Cl)c2)C[C@@H]2CC[C@H]1N2C | 6.31 nM | 
COC(=O)[C@H]1[C@@H](c2ccc(I)cc2)C[C@@H]2CC[C@H]1N2Cc1ccccc1C | 93.3 nM | 
C[C@H](CF)OC(=O)[C@H]1[C@@H](c2ccc(Cl)cc2)C[C@@H]2CC[C@H]1N2C | 3.24 nM | 
COC(=O)[C@H]1[C@@H](c2ccc(C(C)C)cc2)C[C@@H]2CC[C@H]1N2C/C=C/I | 372 nM | 
CN1[C@@H]2CC[C@H]1[C@H](C(=O)OCc1ccccc1)[C@@H](OC(c1ccc(F)cc1)c1ccc(F)cc1)C2 | 49 nM | 
COC(=O)[C@H]1[C@@H](c2ccc(I)cc2)C[C@@H]2CC[C@H]1N2Cc1ccccc1 | 41.7 nM | 
CCCc1ccc([C@H]2C[C@@H]3CC[C@H]([C@H]2C(=O)OC)N3C)cc1 | 501 nM | 
COC(=O)[C@H]1[C@@H](c2ccc(I)cc2)C[C@@H]2[C@H](C)C[C@H]1N2C |  | IC50 [6]: 794 nM
CN1[C@H]2CC[C@@H]1[C@@H](c1nnc(-c3ccccc3)o1)[C@@H](c1ccc(Cl)cc1)C2 |  | IC50 [2]: 2450 nM
C#CCN1[C@H]2CC[C@@H]1[C@@H](C(=O)OC)[C@@H](c1ccc(I)cc1)C2 | 14.1 nM | 
COC(=O)[C@H]1[C@@H](c2ccccc2)C[C@@H]2CC[C@H]1N2CC#CCF |  | IC50 [2]: 3.02 nM
CCc1ccc([C@H]2C[C@@H]3CC[C@@H](N3)[C@H]2C(=O)OC)cc1I | 263 nM | 
C=C(Br)CN1[C@H]2CC[C@@H]1[C@@H](C(=O)OC)[C@@H](c1ccc(I)cc1)C2 | 30.2 nM | 
